According to US5089516A, “1-phenyl-3,5-pyrazolidinedione hydroxystyrene compounds which have tyrosine kinase inhibiting activity” (Kanegafuchi Kagaku Kogyo Kabushiki Kaisha, priority 1987, dated 1992):
Values after ≈ are worked out from the molar mass of the structure shown. Values belong to the molecule of their own block, whether it stands above or below them.

Legend:
[1] = tested on: Staphylococcus aureus IFO 12732; test: Antibacterial activity (MIC) against Staphylococcus aureus IFO 12732; format: cell-based; conditions: IFO12732, 37° C., 18 to 20 hours
Method: The antibacterial activity against Gram-positive bacteria of the compound of the present invention was measured according to a standard method of Nippon Kagaku Ryoho Gakkai [Nippon Kagaku Ryoho Gakkaishi (Journal of the Chemical therapy of Japan), 29, 76(1981)].
As for gram-positive bacteria, after cultivation in Meuller Hinton broth medium (made by Difco Co., Ltd.), there was prepared a bacterial suspension for inoculation containing about 10^6 of the bacteria per 1 ml of the Meuller Hinton broth medium. On the other hand, the test compound was added to Mueller Hinton agar medium (made by Difco Co., Ltd.) so as to give agar plate medium containing test samples which are twofold serial diluted. Then, the above-mentioned bacterial suspension for inoculation was streaked to each agar medium for about 2 cm with a looped nichrome wire (inner diameter: about 1 mm).
After that the each agar plate medium was cultured at 37° C. for 18 to 20 hours, the growth of the test bacteria was determined.

[2] = tested on: Nycobacterium smegmatis ATCC 607; test: Antibacterial activity (MIC) against acid-fast bacteria; format: cell-based; conditions: 37° C., 40 to 42 hours
Method: As for acid-fast bacteria, after cultured in glycerol broth medium, there was prepared a bacterial suspension for inoculation containing about 10^6 of the bacteria per 1 ml of the medium. On the other hand, there were prepared some glycerol Czapek agar plating media with adding the test compounds, and thereto the bacterial suspension for inoculation was streaked.

[3] = tested on: antigen-induced anaphylactic shock death; test: Protecting effect against antigen-induced anaphylactic shock death in actively sensitized guinea pigs; format: in vivo, male guinea pigs; conditions: Cavia porcellus, 1.5 h, oral, 30 minutes before antigen inhalation
Method: (2) Protecting effect against antigen-induced anaphylactic shock death in actively sensitized guinea pigs
Anaphylactic shock death caused by inhalation of antigen was observed according to John P. Devlin Pulmonary and Antiallergic Drugs, John Wiley & Sons, (1985)] employing actively sensitized guinea pigs.
Each 100 mg/kg of body weight ovalbumin dissolved in physiological saline was injected into gluteus and into peritoneal cavity of male guinea pigs weighing 250 to 350 g. Three days later, the animals were further injected intraperitoneally with ovalbumin (100 mg/kg body weight) to conduct booster. Those animals were employed for testing 3 to 4 weeks after the sensitization.
In each group, 4 or more actively sensitized guinea pigs were pretreated by subcutaneously injecting pyrilamine (1 mg/kg body weight) 30 minutes before antigen inhalation to suppress histamine-dependent response and propranolol (1 mg/kg body weight) to enhance the response induced by other than histamine 10 minutes before the antigen inhalation.
The animal was placed in a desiccator with a capacity of about […] and 0.5% aqueous solution of ovalbumin in the state of aerosol was inhaled with ultrasonic type nebulizer for five minutes. Anaphylactic shock death was observed and the animals survived for 90 minutes or more after antigen inhalation were estimated to be protected. All the animals of the control group died due to anaphylactic shock. The compounds of the present invention and therapeutic antiasthmatic agent (tranilast, theophylline) were administered orally 30 minutes before the antigen inhalation.

SMILES: O=C1NC(=S)SC1=Cc1cc(Cc2ccccc2)c(O)c(Cc2ccccc2)c1 [Compound 2]
MIC [1]: 12 µg/mL (≈ 28.7 µM)

SMILES: O=C1Nc2ccccc2C1=Cc1cc(O)c(O)c(CSc2ccccc2)c1 [Compound 11]
MIC [1]: 25 µg/mL (≈ 66.6 µM)

SMILES: O=C1NN(c2ccccc2)C(=O)C1=Cc1cc(Cc2ccccc2)c(O)c(Cc2ccccc2)c1 [Compound 20]
MIC [1]: 100 µg/mL (≈ 217 µM)

SMILES: O=C1N=C(NCc2cccs2)SC1=Cc1cc(CSc2ccccc2)c(O)c(OCc2ccccc2)c1 [Compound 31]
MIC [2]: ≤ 6 µg/mL

MIC [2]: ≤ 15 µg/mL
SMILES: CC(C)c1cc(C=C2SC(NCc3ccccc3)=NC2=O)cc(C(C)C)c1O [Compound 33]

SMILES: CC(C)c1cc(C=C2SC(NCc3ccc(F)cc3)=NC2=O)cc(C(C)C)c1O [Compound 35]
responders at 10 mg/kg [3]: 50%
MIC [2]: 15 µg/mL (≈ 36.4 µM)

SMILES: CC(C)c1cc(C=C2SC(NCc3ccc(Cl)c(Cl)c3)=NC2=O)cc(C(C)C)c1O [Compound 37]
responders at 100 mg/kg [3]: 25%

SMILES: Cc1ccc(CNC2=NC(=O)C(=Cc3cc(C(C)C)c(O)c(C(C)C)c3)S2)cc1 [Compound 39]
responders at 100 mg/kg [3]: 25%

SMILES: CC(C)c1cc(C=C2SC(NCc3ccc(S(N)(=O)=O)cc3)=NC2=O)cc(C(C)C)c1O [Compound 41]
responders at 10 mg/kg [3]: 25%
MIC [1]: 50 µg/mL (≈ 106 µM)
MIC [2]: 25 µg/mL (≈ 52.8 µM)

SMILES: CC(C)c1cc(C=C2SC(NCc3ccc(N)cc3)=NC2=O)cc(C(C)C)c1O [Compound 42]
MIC [2]: ≤ 15 µg/mL
